Source: EP4417602A1, “SUBSTITUTED PYRAZOLE CARBOXAMIDES, SALTS THEREOF AND THEIR USE AS HERBICIDALLY ACTIVE SUBSTANCES” (Bayer AG, priority 2023, dated 2024)

Columns and labels:
[1] = system: ECHCG; assay: A. Herbicidal pre-emergence action on harmful plants (Tables A); type: in vivo, Echinochloa crus-galli; conditions: visual grading after ca. 3 weeks vs untreated controls, 100% = plants have died off, 0% = as control plants
Source text: (§1) Seeds of mono- and dicotyledonous weed plants were sown in plastic pots (double sowings with one species of mono- and one species of dicotyledonous weed plants per pot), in sandy loam, and covered with soil. The compounds according to the invention, formulated in the form of wettable powders (WP) or as emulsifiable concentrates (EC), were applied to the surface of the covering soil as aqueous suspension or emulsion, with the addition of 0.5% of an additive, at an application rate of 6001 of water per hectare (converted). Following treatment, the pots were placed in a greenhouse and kept under optimum growth conditions for the test plants. The visual grading of the damage to the test plants was carried out after ca. 3 weeks in comparison to untreated controls (herbicidal effect in percent (%): 100% effect = plants have died off, 0% effect = as control plants). Tables A1 to A12, below, show the effects of selected compounds of the general formula (I) according to table 1 on various harmful plants and an application rate corresponding to 1280 g/ha or below obtained by the experimental procedure mentioned above. Table A1: pre-emergence activity at 1280g/ha against ABUTH in %

[2] = system: LOLRI; assay: as above; type: in vivo, Lolium rigidum; conditions: visual grading after ca. 3 weeks vs untreated controls, 100% = plants have died off, 0% = as control plants
Source text: as §1

[3] = system: SETVI; assay: as above; type: in vivo, Setaria viridis; conditions: visual grading after ca. 3 weeks vs untreated controls, 100% = plants have died off, 0% = as control plants
Source text: as §1

[4] = system: STEME; assay: as above; type: in vivo, Stellaria media; conditions: visual grading after ca. 3 weeks vs untreated controls, 100% = plants have died off, 0% = as control plants
Source text: as §1

[5] = system: POAAN; assay: as above; type: in vivo, Poa annua
Source text: as §1

[6] = system: AMARE; assay: as above; type: in vivo, Amaranthus retroflexus; conditions: application rate 1280 g/ha; visual grading after ca. 3 weeks vs untreated controls; 100% = plants have died off, 0% = as control plants
Source text: as §1

[7] = system: ECHCG; assay: B. Herbicidal post-emergence action on harmful plants (Tables B); type: in vivo, Echinochloa crus-galli; conditions: application rate 1280 g/ha; Table B2a
Description: (§2) Seeds of mono- and dicotyledonous weed plants were placed in plastic pots in sandy loam soil (doubly sown with in each case one species of mono- or dicotyledonous weed plants per pot), covered with soil and cultivated in a greenhouse under controlled growth conditions. 2 to 3 weeks after sowing, the test plants were treated at the one-leaf stage. The compounds of the invention, formulated in the form of wettable powders (WP) or as emulsion concentrates (EC), were applied onto the green parts of the plants as aqueous suspension or emulsion with addition of 0.5% additive at a water application rate of 600 liters per hectare (converted). After the test plants had been kept in the greenhouse under optimum growth conditions for about 3 weeks, the activity of the preparations was rated visually in comparison to untreated controls. For example, 100% activity = the plants have died, 0% activity = like control plants. Tables B1 to B12, below, show the effects of selected compounds of the general formula (I) according to table 1 on various harmful plants and an application rate corresponding to 1280 g/ha or below obtained by the experimental procedure mentioned above. Table B1a: post-emergence activity at 1280g/ha against ABUTH in %

[8] = system: MATIN; assay: as above; type: in vivo, Matricaria inodora; conditions: application rate 1280 g/ha; Table B4a
Description: as §2

[9] = system: POAAN; assay: as above; type: in vivo, Poa annua
Description: as §2

[10] = system: VERPE; assay: as above; type: in vivo, Veronica persica; conditions: application rate 1280 g/ha; Table B11a
Description: as §2

[11] = system: MATIN; assay: A. Herbicidal pre-emergence action on harmful plants (Tables A); type: in vivo, Matricaria inodora; conditions: visual grading after ca. 3 weeks vs untreated controls, 100% = plants have died off, 0% = as control plants
Source text: as §1

[12] = system: ALOMY; assay: as above; type: in vivo, Alopecurus myosuroides
Source text: as §1

[13] = system: DIGSA; assay: as above; type: in vivo, Digitaria sanguinalis
Source text: as §1

[14] = application rate 80 g/ha, Table A7c
[15] = application rate 320 g/ha, Table A7b
[16] = application rate 1280 g/ha, visual grading after ca. 3 weeks vs untreated controls, 100% = plants have died off, 0% = as control plants
[17] = application rate 1280 g/ha, Table B7a
[18] = application rate 1280 g/ha, Table A9a
[19] = application rate 320 g/ha, Table A12b
[20] = application rate 1280 g/ha, Table A12a
[21] = application rate 320 g/ha, Table B7b

COCc1c(C(=O)N2CCCC2Cc2ccc(Cl)cc2Cl)cnn1C (racemic) [Example I-166]
pre-emergence activity against ECHCG ([1]; application rate 1280 g/ha): 90%
pre-emergence activity against LOLRI ([2]; application rate 1280 g/ha): 100%
pre-emergence activity against SETVI ([3]; application rate 1280 g/ha): 90%
pre-emergence activity against STEME ([4]; application rate 1280 g/ha): 90%
pre-emergence activity against POAAN [5, 14]: 90%
pre-emergence activity against POAAN [5, 15]: 90%
pre-emergence activity against POAAN [5, 16]: 100%
pre-emergence activity against AMARE [6]: 90%
post-emergence activity against ECHCG [7]: 90%
post-emergence activity against MATIN [8]: 90%
post-emergence activity against POAAN [9, 17]: 90%
post-emergence activity against VERPE [10]: 90%

COCc1nn(C(=O)NC2CC2)cc1C(=O)N1CCCC1Cc1ccccc1F (racemic) [Example I-036]
pre-emergence activity against ECHCG ([1]; application rate 320 g/ha): 90%
pre-emergence activity against ECHCG ([1]; application rate 1280 g/ha): 100%
pre-emergence activity against LOLRI ([2]; application rate 320 g/ha): 90%
pre-emergence activity against LOLRI ([2]; application rate 1280 g/ha): 90%
pre-emergence activity against MATIN ([11]; application rate 1280 g/ha): 90%
pre-emergence activity against SETVI ([3]; application rate 1280 g/ha): 90%
pre-emergence activity against STEME ([4]; application rate 320 g/ha): 90%
pre-emergence activity against STEME ([4]; application rate 1280 g/ha): 90%
pre-emergence activity against POAAN [5, 14]: 90%
pre-emergence activity against POAAN [5, 15]: 90%
pre-emergence activity against POAAN [5, 16]: 100%
pre-emergence activity against ALOMY [12, 18]: 90%
pre-emergence activity against DIGSA [13, 19]: 90%
pre-emergence activity against DIGSA [13, 20]: 100%
post-emergence activity against VERPE [10]: 90%

COCc1nn(C)cc1C(=O)N1CCCC1Cc1ncccc1F (racemic) [Example I-015]
pre-emergence activity against ECHCG ([1]; application rate 320 g/ha): 90%
pre-emergence activity against ECHCG ([1]; application rate 1280 g/ha): 100%
pre-emergence activity against LOLRI ([2]; application rate 1280 g/ha): 100%
pre-emergence activity against SETVI ([3]; application rate 1280 g/ha): 90%
pre-emergence activity against POAAN [5, 14]: 100%
pre-emergence activity against POAAN [5, 15]: 100%
pre-emergence activity against POAAN [5, 16]: 100%
pre-emergence activity against ALOMY [12, 18]: 90%
post-emergence activity against POAAN [9, 21]: 90%
post-emergence activity against POAAN [9, 17]: 90%
post-emergence activity against VERPE [10]: 90%

COCc1nn(C)cc1C(=O)N1CCCC1Cc1c(F)cccc1F (racemic) [Example I-081]
pre-emergence activity against ECHCG ([1]; application rate 80 g/ha): 90%
pre-emergence activity against ECHCG ([1]; application rate 320 g/ha): 100%
pre-emergence activity against ECHCG ([1]; application rate 1280 g/ha): 100%
pre-emergence activity against LOLRI ([2]; application rate 80 g/ha): 100%
pre-emergence activity against LOLRI ([2]; application rate 320 g/ha): 100%
pre-emergence activity against LOLRI ([2]; application rate 1280 g/ha): 100%
pre-emergence activity against MATIN ([11]; application rate 320 g/ha): 90%
pre-emergence activity against MATIN ([11]; application rate 1280 g/ha): 90%
pre-emergence activity against SETVI ([3]; application rate 80 g/ha): 90%
pre-emergence activity against SETVI ([3]; application rate 320 g/ha): 100%
pre-emergence activity against SETVI ([3]; application rate 1280 g/ha): 100%
pre-emergence activity against STEME ([4]; application rate 1280 g/ha): 90%
pre-emergence activity against POAAN [5, 14]: 100%
pre-emergence activity against POAAN [5, 15]: 100%
pre-emergence activity against POAAN [5, 16]: 100%
pre-emergence activity against AMARE [6]: 90%
pre-emergence activity against ALOMY ([12]; application rate 320 g/ha, Table A9b): 90%
pre-emergence activity against ALOMY [12, 18]: 100%
pre-emergence activity against DIGSA ([13]; application rate 80 g/ha, Table A12c): 90%
pre-emergence activity against DIGSA [13, 19]: 100%
pre-emergence activity against DIGSA [13, 20]: 100%
post-emergence activity against MATIN [8]: 90%
post-emergence activity against POAAN ([9]; application rate 80 g/ha, Table B7c): 90%
post-emergence activity against POAAN [9, 21]: 90%
post-emergence activity against POAAN [9, 17]: 100%
